Assay results as given in ChEMBL document CHEMBL4420066, “Aryl amine substituted quinoxaline used as anticancer drugs” (2017).
Values belong to the compound of their own block, whether it stands above or below them. Activity calls are given as the source filed them. The rule behind the calls is not given here.

Assays:
[1] = species on record: Homo sapiens; experiment: Activation of PP2A in human Hep3B cells assessed as minimal concentration causing increase in protein phosphatase activity incubated for 24 hrs using phosphopeptide substrate incubated for 10 mins by malachite green-phosphate complex assay; format: cell-based
[2] = species on record: Homo sapiens; experiment: Activation of PP2A in human HA22T cells assessed as minimal concentration causing increase in protein phosphatase activity incubated for 24 hrs using phosphopeptide substrate incubated for 10 mins by malachite green-phosphate complex assay; format: cell-based
[3] = species on record: Homo sapiens; experiment: Activation of PP2A in human SKHEP1 cells assessed as minimal concentration causing increase in protein phosphatase activity incubated for 24 hrs using phosphopeptide substrate incubated for 10 mins by malachite green-phosphate complex assay; format: cell-based
[4] = species on record: Homo sapiens; experiment: Activation of PP2A in human PLC5 cells assessed as minimal concentration causing increase in protein phosphatase activity incubated for 24 hrs using phosphopeptide substrate incubated for 10 mins by malachite green-phosphate complex assay; format: cell-based
[5] = species on record: Homo sapiens; experiment: Inhibition of His-tagged recombinant human SET1 protein (1 to 290 amino acids) expressed in Escherichia coli interaction with N-terminal GST-tagged recombinant human PP2A-C (1 to 309 amino acids) assessed as minimal concentration causing disruption of SET-PP2Ac binding by SPR assay
[6] = system: HA22T cell line; experiment: Induction of apoptosis in human HA22T cells assessed as accumulation at subG1 phase at 0.5 to 4 uM by flow cytometry; format: functional, cell-based
[7] = system: SK-HEP1; experiment: Induction of apoptosis in human SKHEP1 cells assessed as accumulation at subG1 phase at 0.5 to 4 uM by flow cytometry; format: functional, cell-based
[8] = system: HA22T cell line; experiment: Cytotoxicity against human HA22T cells assessed as reduction in cell viability incubated for 48 hrs by MTT assay; format: functional, cell-based
[9] = species on record: Homo sapiens; experiment: Induction of apoptosis in human PLC5 cells assessed as accumulation at subG1 phase at 0.5 to 4 uM by flow cytometry; format: functional, cell-based
[10] = system: Hep 3B2; experiment: Cytotoxicity against human Hep3B cells assessed as reduction in cell viability incubated for 48 hrs by MTT assay; format: functional, cell-based
[11] = system: SK-HEP1; experiment: Cytotoxicity against human SKHEP1 cells assessed as reduction in cell viability incubated for 48 hrs by MTT assay; format: functional, cell-based
[12] = species on record: Homo sapiens; experiment: Cytotoxicity against human PLC5 cells assessed as reduction in cell viability incubated for 48 hrs by MTT assay; format: functional, cell-based
[13] = system: Hep 3B2; experiment: Induction of apoptosis in human Hep3B cells assessed as accumulation at subG1 phase at 0.5 to 4 uM by flow cytometry; format: functional, cell-based
[14] = species on record: Homo sapiens; experiment: Cytotoxicity against human PLC5 cells assessed as reduction in cell viability at 0.5 to 4 uM incubated for 48 hrs by MTT assay; format: functional, cell-based
[15] = system: Homo sapiens; experiment: Antitumor activity against human PLC5 cells xenografted in mouse assessed as reduction in tumor size at 10 mg/kg dosed for 4 weeks; format: functional, organism-based

MEC [5]: 50 nM
Compound: FS(F)(F)(F)(F)c1ccc(Nc2nc3ccccc3nc2Nc2ccc(S(F)(F)(F)(F)F)cc2)cc1
MEC [1]: < 50 nM | MEC [2]: < 50 nM | MEC [3]: < 50 nM | MEC [4]: < 50 nM

MEC [5]: > 200 nM
Compound: FC(F)(F)Oc1ccc(Nc2nc3ccccc3nc2Cl)cc1
MEC [1]: > 200 nM | MEC [2]: > 200 nM | MEC [3]: > 200 nM | MEC [4]: > 200 nM

MEC [5]: < 100 nM
Compound: FC(F)(F)c1cc(Nc2nc3ccccc3nc2Nc2ccc(Cl)c(C(F)(F)F)c2)ccc1Cl
MEC [1]: 100 to 200 nM | MEC [2]: 100 to 200 nM | MEC [3]: 100 to 200 nM | MEC [4]: 100 to 200 nM

MEC [5]: > 200 nM
Compound: Clc1cccc(Nc2nc3ccccc3nc2Cl)c1
MEC [1]: > 200 nM | MEC [2]: > 200 nM | MEC [3]: > 200 nM | MEC [4]: > 200 nM

MEC [5]: 100 to 200 nM
Compound: C#Cc1cccc(Nc2nc3cc([N+](=O)[O-])ccc3nc2Nc2ccc(OC)cc2)c1
MEC [1]: 100 to 200 nM | MEC [2]: 100 to 200 nM | MEC [3]: 100 to 200 nM | MEC [4]: 100 to 200 nM

MEC [5]: > 200 nM
Compound: Clc1nc2ccccc2nc1NCc1ccccc1
MEC [1]: > 200 nM | MEC [2]: > 200 nM | MEC [3]: > 200 nM | MEC [4]: > 200 nM

MEC [5]: > 200 nM
Compound: FS(F)(F)(F)(F)c1ccc(Nc2nc3ccccc3nc2Cl)cc1
MEC [1]: > 200 nM | MEC [2]: > 200 nM | MEC [3]: > 200 nM | MEC [4]: > 200 nM

MEC [5]: > 200 nM
Compound: Clc1nc2ccccc2nc1Nc1ccccc1
MEC [1]: > 200 nM | MEC [2]: > 200 nM | MEC [3]: > 200 nM | MEC [4]: > 200 nM

MEC [5]: > 200 nM
Compound: O=[N+]([O-])c1ccc2nc(Nc3cccc(C(F)(F)F)c3)c(Nc3cccc(C(F)(F)F)c3)nc2c1
MEC [1]: > 200 nM | MEC [2]: > 200 nM | MEC [3]: > 200 nM | MEC [4]: > 200 nM

Compound: C#Cc1cccc(Nc2ncnc3cc(OCCOC)c(OCCOC)cc23)c1
Activity [6]: Active | Activity [7]: Active | Activity [8]: Active | Activity [9]: Active | Activity [10]: Active | Activity [11]: Active | Activity [12]: Active | Activity [13]: Active

MEC [5]: 100 to 200 nM
Compound: Clc1cc(Cl)cc(Nc2nc3ccccc3nc2Cl)c1
MEC [1]: > 200 nM | MEC [2]: > 200 nM | MEC [3]: > 200 nM | MEC [4]: > 200 nM

MEC [5]: 50 to 100 nM
Compound: C#Cc1cccc(Nc2nc3ccc([N+](=O)[O-])cc3nc2Nc2cccc(C#C)c2)c1
MEC [1]: < 50 nM | MEC [2]: < 50 nM | MEC [3]: < 50 nM | MEC [4]: < 50 nM

MEC [5]: > 200 nM
Compound: COc1cccc(Nc2nc3ccc([N+](=O)[O-])cc3nc2Nc2cccc(OC)c2)c1
MEC [1]: > 200 nM | MEC [2]: > 200 nM | MEC [3]: > 200 nM | MEC [4]: > 200 nM

MEC [5]: > 200 nM
Compound: FC(F)(F)c1cc(Nc2nc3ccccc3nc2Cl)cc(C(F)(F)F)c1
MEC [1]: > 200 nM | MEC [2]: > 200 nM | MEC [3]: > 200 nM | MEC [4]: > 200 nM

Compound: COc1ccc(Nc2nc3ccc([N+](=O)[O-])cc3nc2Nc2cccc(O)c2)cc1
MEC [1]: < 100 nM | MEC [2]: < 100 nM | MEC [3]: < 100 nM | MEC [4]: < 100 nM

MEC [5]: < 100 nM
Compound: FC(F)(F)Oc1ccc(Nc2nc3ccccc3nc2Nc2ccc(OC(F)(F)F)cc2)cc1
MEC [1]: 50 to 100 nM | MEC [2]: 50 to 100 nM | MEC [3]: 50 to 100 nM | MEC [4]: 50 to 100 nM

MEC [5]: > 200 nM
Compound: O=[N+]([O-])c1ccc2nc(Nc3cccc(Br)c3)c(Nc3cccc(Br)c3)nc2c1
MEC [1]: > 200 nM | MEC [2]: > 200 nM | MEC [3]: > 200 nM | MEC [4]: > 200 nM

Compound: CNC(=O)c1cc(Oc2ccc(NC(=O)Nc3ccc(Cl)c(C(F)(F)F)c3)cc2)ccn1
Activity [14]: Active | Activity [15]: Active

MEC [5]: > 200 nM
Compound: O=[N+]([O-])c1cccc(Nc2nc3ccccc3nc2Cl)c1
MEC [1]: > 200 nM | MEC [2]: > 200 nM | MEC [3]: > 200 nM | MEC [4]: > 200 nM

MEC [5]: > 200 nM
Compound: Nc1ccc2nc(Nc3ccc(C(F)(F)F)cc3)c(Nc3ccc(C(F)(F)F)cc3)nc2c1
MEC [1]: > 200 nM | MEC [2]: > 200 nM | MEC [3]: > 200 nM | MEC [4]: > 200 nM

MEC [5]: < 100 nM
Compound: Oc1ccc(Nc2nc3ccccc3nc2Nc2ccc(O)cc2)cc1
MEC [1]: 100 to 200 nM | MEC [2]: 100 to 200 nM | MEC [3]: 100 to 200 nM | MEC [4]: 100 to 200 nM
